{
  "source": "patent US9051544B2",
  "about": "“Method of enhancing cell growth using alkyl-amine-n-oxide (AANOx)” (BAXTER INTERNATIONAL INC., priority 2008, dated 2015)",
  "key": {"[1]": {"system": "CHO cells", "experiment": "DDAO spiked into media at 0-50 ppm or equivalent ppb, in duplicate by serial dilution; cell growth and viability", "type": "cell-based, Chinese hamster", "excerpt": "In separate experiments, DDAO was spiked into media at differing concentrations between 0-50 ppm or equivalent ppb in duplicate using serial dilution of high DDAO containing-media to reduce error (FIGS. 3 and 4)."}, "[2]": {"system": "Bacillus bacteria", "conditions": "Bacillus bacteria in culture; Brycki et al.; cited from earlier work"}, "[3]": {"system": "CHO cells expressing FVIII", "type": "cell-based, Chinese hamster", "experimental": "In order to determine the effect of DDAO levels in cell growth, experiments were undertaken using CHO cells expressing FVIII with varying levels of DDAO equivalent to the contaminating amount in certain lots of commercial soy hydrolysate.\nCells from a bioreactor containing CHO cells in BAV serum free media, DMEM/HAM's F12 medium (11.76 g) supplemented with soya-peptone (4 g), ethanolamine (1.53 mg), L-glutamine (0.6 g), NaHCO3 (2.0 g) and SYNPERONIC (PLURONIC®) F68 (0.25 g) (see International Patent Publ. WO/2006/045438) were cultured with 4 g/L soy peptone in 60 mL Roux flasks. Roux flasks provide a static, unmoving environment for the cells to grow."}},
  "data": [
    {"smiles": "CCCCCCCCCCCC[N+](C)(C)[O-]", "note": "[DDAO, dodecyldimethylamine oxide]", "values": [
      {"measurement": "DDAO level up to which there is a beneficial effect on cell growth", "setting": "[1]; FIG. 3", "result": "5-10 ppb"},
      {"measurement": "DDAO level up to which there is a beneficial effect on cell growth", "setting": "[1]; FIG. 4, duplicate samples", "result": "6-10 ppm"},
      {"measurement": "DDAO level above which the process of denitrification is slowed", "setting": "[2]", "result": "above 75 parts per million"},
      {"measurement": "DDAO level above which toxicity is shown", "setting": "[3]; Chinese hamster", "result": "above 21.5 ppm"},
      {"measurement": "DDAO level up to which there is a positive effect on cell growth", "setting": "[3]; ppm equivalent in the soy hydrolysate, Roux flasks", "result": "up to 20 ppm"}
    ]}
  ]
}
